Source: patent US20170166598A1, “HETEROARYL COMPOUNDS FOR KINASE INHIBITION” (ARIAD PHARMACEUTICALS, INC., priority 2014, published 2017)

Tests used:
Assay type in all cases: cell-based
[1] = biological target: T1, human EGFR E746-A750 deletion and T790M Mutation (Homo sapiens, UniProt P00533, DEL746-750/T790M); experiment: Ba/F3-EGFR-Del/T790M cell anti-proliferative assay (CellTiter 96 MTS, 72 h); conditions: Ba/F3-EGFR-Del/T790M cells
T1 construct: expressed in transfected cells; host or cells: Ba/F3 (murine pro-B) cells transduced with lentivirus from pLVX-IRES puro
T1 sequence (P00533 with tags, fused parts or gaps DEL746-750/T790M): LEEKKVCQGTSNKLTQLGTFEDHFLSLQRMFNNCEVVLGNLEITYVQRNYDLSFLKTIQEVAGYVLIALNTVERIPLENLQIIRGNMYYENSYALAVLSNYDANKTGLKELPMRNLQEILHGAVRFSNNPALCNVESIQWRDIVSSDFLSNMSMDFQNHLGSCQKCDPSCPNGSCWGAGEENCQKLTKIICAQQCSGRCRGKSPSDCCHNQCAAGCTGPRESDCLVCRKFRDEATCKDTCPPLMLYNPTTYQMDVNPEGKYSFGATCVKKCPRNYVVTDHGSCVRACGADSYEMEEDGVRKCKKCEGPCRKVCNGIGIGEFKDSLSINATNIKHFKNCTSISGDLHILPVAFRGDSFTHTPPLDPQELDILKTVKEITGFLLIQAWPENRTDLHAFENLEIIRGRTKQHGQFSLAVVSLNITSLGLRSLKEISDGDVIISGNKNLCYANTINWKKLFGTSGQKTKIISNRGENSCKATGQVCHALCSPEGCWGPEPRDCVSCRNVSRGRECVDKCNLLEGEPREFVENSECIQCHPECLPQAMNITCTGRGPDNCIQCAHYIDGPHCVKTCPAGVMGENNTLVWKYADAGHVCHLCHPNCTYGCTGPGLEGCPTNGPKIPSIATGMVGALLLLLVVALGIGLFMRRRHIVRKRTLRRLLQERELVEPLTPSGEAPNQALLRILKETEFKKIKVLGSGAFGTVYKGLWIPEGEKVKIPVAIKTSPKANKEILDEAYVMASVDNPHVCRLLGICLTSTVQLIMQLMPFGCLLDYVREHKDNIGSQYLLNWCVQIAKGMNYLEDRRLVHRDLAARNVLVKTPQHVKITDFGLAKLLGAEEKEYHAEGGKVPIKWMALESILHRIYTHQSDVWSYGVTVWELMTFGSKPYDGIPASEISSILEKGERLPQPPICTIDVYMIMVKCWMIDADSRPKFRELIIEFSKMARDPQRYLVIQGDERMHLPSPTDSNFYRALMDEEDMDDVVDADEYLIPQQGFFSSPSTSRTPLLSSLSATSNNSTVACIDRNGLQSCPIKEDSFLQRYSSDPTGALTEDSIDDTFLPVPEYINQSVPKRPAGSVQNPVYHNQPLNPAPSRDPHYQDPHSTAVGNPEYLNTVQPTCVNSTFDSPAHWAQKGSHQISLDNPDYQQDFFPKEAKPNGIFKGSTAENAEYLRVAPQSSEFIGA
Protocol: An expression vector, pLVX-IRES puro (Clontech) coding for human EGFR E746-A750 deletion and T790M Mutation, was transfected into HEK293 cells by the Trans-Lentiviral ORF Packaging System (Thermo Scientific), to produce virus encoding EGFR exon 19 deletion and T790M mutations. Ba/F3 (DSMZ) cells maintained in RPMI 1640 medium supplemented with 10% fetal bovine serum, 200 μM L-glutamine/200 μg/mL penicillin/200 μg/mL streptomycin (Life Technology) and 10 ng/mL IL-3 (R&D system), were infected by EGFR E746-A750 deletion and T790M Mutation virus and subsequently selected by puromycin (Life Technology) selection and IL-3 depletion. […] The anti-proliferative activity of compounds was determined as follows: BaF3-EGFR-Del/T790M cells seeded in 96 well plates (2500 cells/well) were treated with test compound (dissolved in DMSO) at a series of concentrations (4-fold dilution, top concentration: 10,000 nM). The plates were incubated for 72 h in a 37° C. incubator with 5% CO2, and the number of viable cells in each well were measured indirectly by CellTiter 96® Aqueous One Solution Cell Proliferation Assay (Promega; this assay is a colorimetric method for determining the number of viable cells through measurement of their metabolic activity by detection of enzymatic conversion of tetrazolium salts into blue formazan derivatives). Reagent (20 μL) was added into each well, and the plates were returned to the incubator for 2 h. The absorbance in each well was then measured at 490 nm using an Envision plate reader (Perkin Elmer).

[2] = biological target: T2, Her2 exon 20 YVMA insertion (A775_G776ins YVMA) (Homo sapiens, UniProt P04626, INS775YVMA); experiment: Ba/F3-Her2 Exon20 YVMA cell anti-proliferative assay (CellTiter 96 MTS, 72 h); conditions: Ba/F3-Her2 Exon20 YVMA cells
T2 construct: expressed in transfected cells; host or cells: Ba/F3 (murine pro-B) cells transduced with lentivirus from pLVX-IRES puro
T2 sequence (P04626 with tags, fused parts or gaps INS775YVMA): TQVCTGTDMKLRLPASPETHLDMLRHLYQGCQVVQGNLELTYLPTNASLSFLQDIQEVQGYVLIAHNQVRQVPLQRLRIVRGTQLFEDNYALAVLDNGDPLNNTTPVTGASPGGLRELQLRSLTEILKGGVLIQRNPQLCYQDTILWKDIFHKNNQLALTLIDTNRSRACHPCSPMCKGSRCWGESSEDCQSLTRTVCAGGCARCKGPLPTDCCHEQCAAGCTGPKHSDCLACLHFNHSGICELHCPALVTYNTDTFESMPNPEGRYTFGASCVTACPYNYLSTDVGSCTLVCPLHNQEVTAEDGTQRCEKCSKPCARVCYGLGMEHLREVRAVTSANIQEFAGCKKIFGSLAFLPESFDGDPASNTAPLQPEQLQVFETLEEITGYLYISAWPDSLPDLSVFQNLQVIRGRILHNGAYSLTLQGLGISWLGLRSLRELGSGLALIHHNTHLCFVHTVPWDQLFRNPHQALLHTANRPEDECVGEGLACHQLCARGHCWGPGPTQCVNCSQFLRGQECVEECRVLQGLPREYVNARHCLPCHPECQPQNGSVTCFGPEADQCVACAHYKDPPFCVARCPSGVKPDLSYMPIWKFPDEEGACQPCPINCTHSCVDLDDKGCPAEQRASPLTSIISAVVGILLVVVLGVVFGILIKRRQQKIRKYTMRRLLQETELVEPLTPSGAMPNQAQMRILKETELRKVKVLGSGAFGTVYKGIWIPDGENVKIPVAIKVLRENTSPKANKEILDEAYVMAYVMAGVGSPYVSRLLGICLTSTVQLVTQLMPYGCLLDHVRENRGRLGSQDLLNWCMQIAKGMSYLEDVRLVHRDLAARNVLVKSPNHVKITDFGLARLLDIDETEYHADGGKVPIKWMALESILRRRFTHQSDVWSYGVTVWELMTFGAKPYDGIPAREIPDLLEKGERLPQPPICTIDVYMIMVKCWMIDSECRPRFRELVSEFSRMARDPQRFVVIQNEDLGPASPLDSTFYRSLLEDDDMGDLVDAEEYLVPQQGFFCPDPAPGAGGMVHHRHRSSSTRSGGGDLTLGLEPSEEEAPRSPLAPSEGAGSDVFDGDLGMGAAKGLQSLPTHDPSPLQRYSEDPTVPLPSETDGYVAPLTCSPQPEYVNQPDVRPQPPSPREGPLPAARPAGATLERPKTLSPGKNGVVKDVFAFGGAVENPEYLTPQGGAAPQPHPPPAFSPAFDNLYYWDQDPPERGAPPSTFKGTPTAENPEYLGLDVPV
From the text: A compound's ability in selectively inhibiting Her2 exon 20 YVMA insertion mutations can be assessed using Ba/F3 cells, a murine pro-B cell line, which have been transduced with Her2 Exon20 YVMA insertions. An expression vector, pLVX-IRES puro (Clontech) coding for […] (A775_G776ins YVMA), was transfected into HEK293 cells by the Trans-Lentiviral ORF Packaging System (Thermo Scientific), to produce virus encoding EGFR exon 20 insertions. Ba/F3 (DSMZ) cells maintained in RPMI 1640 medium supplemented with 10% fetal bovine serum, 200 μM L-glutamine/200 μg/mL penicillin/200 μg/mL streptomycin (Life Technology) and 10 ng/mL IL-3 (R&D system), were infected by EGFR Exon20 virus and subsequently selected by puromycin (Life Technology) selection and IL-3 depletion. Ba/F3 cells expressing Her2 Exon20 YVMA insertions (named Ba/F3-Her2 Exon20 YVMA) can proliferate in the absence of IL-3. The anti-proliferative activity of compounds was determined as follows: BaF3-Her2 Exon20 YVMA cells seeded in 96 well plates (2500 cells/well) were treated with test compound (dissolved in DMSO) at a series of concentrations (4-fold dilution, top concentration: 10,000 nM). The plates were incubated for 72 h in a 37° C. incubator with 5% CO2, and the number of viable cells in each well were measured indirectly by CellTiter 96@ Aqueous One Solution Cell Proliferation Assay (Promega; this assay is a colorimetric method for determining the number of viable cells through measurement of their metabolic activity by detection of enzymatic conversion of tetrazolium salts into blue formazan derivatives). Reagent (20 μL) was added into each well, and the plates were returned to the incubator for 2 h. The absorbance in each well was then measured at 490 nm using an Envision plate reader (Perkin Elmer).

[3] = biological target: T3, human EGFR exon 20 insertion NPG (H773_V774insNPG) (Homo sapiens, UniProt P00533, INS772GNP); experiment: Ba/F3-EGFR-Exon20-NPG cell anti-proliferative assay (CellTiter 96 MTS, 72 h); conditions: Ba/F3-EGFR-Exon20-NPG cells
T3 construct: expressed in transfected cells; host or cells: Ba/F3 (murine pro-B) cells transduced with lentivirus from pLVX-IRES puro
T3 sequence (P00533 with tags, fused parts or gaps INS772GNP): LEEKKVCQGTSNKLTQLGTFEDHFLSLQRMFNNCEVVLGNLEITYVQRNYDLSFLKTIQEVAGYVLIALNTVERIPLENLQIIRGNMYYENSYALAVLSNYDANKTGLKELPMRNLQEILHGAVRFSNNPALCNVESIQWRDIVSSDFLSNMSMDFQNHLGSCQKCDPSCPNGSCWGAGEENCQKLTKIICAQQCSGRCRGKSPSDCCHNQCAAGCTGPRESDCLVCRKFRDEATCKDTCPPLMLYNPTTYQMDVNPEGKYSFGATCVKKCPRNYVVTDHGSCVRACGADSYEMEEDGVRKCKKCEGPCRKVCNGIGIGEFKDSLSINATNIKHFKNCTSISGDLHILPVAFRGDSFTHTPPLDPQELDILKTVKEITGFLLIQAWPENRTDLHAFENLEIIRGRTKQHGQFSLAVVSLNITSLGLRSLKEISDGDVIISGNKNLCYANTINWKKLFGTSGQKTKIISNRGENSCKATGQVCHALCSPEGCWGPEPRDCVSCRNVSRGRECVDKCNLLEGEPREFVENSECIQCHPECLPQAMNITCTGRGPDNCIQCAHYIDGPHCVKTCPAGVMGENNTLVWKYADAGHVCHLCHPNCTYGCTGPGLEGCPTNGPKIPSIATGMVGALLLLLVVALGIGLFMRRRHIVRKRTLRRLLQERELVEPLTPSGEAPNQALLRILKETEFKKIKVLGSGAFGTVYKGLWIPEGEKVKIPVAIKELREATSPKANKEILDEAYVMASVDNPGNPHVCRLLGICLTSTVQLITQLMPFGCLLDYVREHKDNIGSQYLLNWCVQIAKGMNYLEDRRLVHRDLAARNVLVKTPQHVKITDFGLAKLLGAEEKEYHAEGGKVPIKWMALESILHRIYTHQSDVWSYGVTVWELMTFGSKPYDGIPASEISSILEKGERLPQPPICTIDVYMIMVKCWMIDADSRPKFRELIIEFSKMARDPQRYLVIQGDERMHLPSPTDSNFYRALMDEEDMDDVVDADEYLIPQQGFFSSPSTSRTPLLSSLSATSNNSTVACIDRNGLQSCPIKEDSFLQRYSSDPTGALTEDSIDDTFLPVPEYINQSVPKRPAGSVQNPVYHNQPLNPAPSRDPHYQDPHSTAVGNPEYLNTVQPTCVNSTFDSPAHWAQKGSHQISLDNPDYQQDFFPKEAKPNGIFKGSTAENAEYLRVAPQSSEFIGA
Protocol: (§1) An expression vector, pLVX-IRES puro (Clontech) coding for human EGFR exon 20 insertions NPG (H773_V774insNPG) or ASV (V769_D770insASV), was transfected into HEK293 cells by the Trans-Lentiviral ORF Packaging System (Thermo Scientific), to produce virus encoding EGFR exon 20 insertions. Ba/F3 (DSMZ) cells maintained in RPMI 1640 medium supplemented with 10% fetal bovine serum, 200 μM L-glutamine/l 200 μg/mL penicillin/200 μg/mL streptomycin (Life Technology) and 10 ng/mL IL-3 (R&D system), were infected by EGFR Exon20 virus and subsequently selected by puromycin (Life Technology) selection and IL-3 depletion. […] The anti-proliferative activity of compounds were determined as follows: BaF3-EGFR-Exon20 cells (NPG or ASV) seeded in 96 well plates (2500 cells/well) were treated with test compound (dissolved in DMSO) at a series of concentrations (4-fold dilution, top concentration: 10,000 nM). The plates were incubated for 72 h in a 37° C. incubator with 5% CO2, and the number of viable cells in each well were measured indirectly by CellTiter 96® Aqueous One Solution Cell Proliferation Assay (Promega) This assay is a colorimetric method for determining the number of viable cells through measurement of their metabolic activity by detection of enzymatic conversion of tetrazolium salts into blue formazan derivatives. Reagent (20 μL) was added into each well, and the plates were returned to the incubator for 2 h. The absorbance in each well was then measured at 490 nm using an Envision plate reader (Perkin Elmer).

[4] = biological target: T4, human EGFR exon 20 insertion ASV (V769_D770insASV) (Homo sapiens, UniProt P00533, INS769ASV); experiment: Ba/F3-EGFR-Exon20-ASV cell anti-proliferative assay (CellTiter 96 MTS, 72 h); conditions: Ba/F3-EGFR-Exon20-ASV cells
T4 construct: expressed in transfected cells; host or cells: Ba/F3 (murine pro-B) cells transduced with lentivirus from pLVX-IRES puro
T4 sequence (P00533 with tags, fused parts or gaps INS769ASV): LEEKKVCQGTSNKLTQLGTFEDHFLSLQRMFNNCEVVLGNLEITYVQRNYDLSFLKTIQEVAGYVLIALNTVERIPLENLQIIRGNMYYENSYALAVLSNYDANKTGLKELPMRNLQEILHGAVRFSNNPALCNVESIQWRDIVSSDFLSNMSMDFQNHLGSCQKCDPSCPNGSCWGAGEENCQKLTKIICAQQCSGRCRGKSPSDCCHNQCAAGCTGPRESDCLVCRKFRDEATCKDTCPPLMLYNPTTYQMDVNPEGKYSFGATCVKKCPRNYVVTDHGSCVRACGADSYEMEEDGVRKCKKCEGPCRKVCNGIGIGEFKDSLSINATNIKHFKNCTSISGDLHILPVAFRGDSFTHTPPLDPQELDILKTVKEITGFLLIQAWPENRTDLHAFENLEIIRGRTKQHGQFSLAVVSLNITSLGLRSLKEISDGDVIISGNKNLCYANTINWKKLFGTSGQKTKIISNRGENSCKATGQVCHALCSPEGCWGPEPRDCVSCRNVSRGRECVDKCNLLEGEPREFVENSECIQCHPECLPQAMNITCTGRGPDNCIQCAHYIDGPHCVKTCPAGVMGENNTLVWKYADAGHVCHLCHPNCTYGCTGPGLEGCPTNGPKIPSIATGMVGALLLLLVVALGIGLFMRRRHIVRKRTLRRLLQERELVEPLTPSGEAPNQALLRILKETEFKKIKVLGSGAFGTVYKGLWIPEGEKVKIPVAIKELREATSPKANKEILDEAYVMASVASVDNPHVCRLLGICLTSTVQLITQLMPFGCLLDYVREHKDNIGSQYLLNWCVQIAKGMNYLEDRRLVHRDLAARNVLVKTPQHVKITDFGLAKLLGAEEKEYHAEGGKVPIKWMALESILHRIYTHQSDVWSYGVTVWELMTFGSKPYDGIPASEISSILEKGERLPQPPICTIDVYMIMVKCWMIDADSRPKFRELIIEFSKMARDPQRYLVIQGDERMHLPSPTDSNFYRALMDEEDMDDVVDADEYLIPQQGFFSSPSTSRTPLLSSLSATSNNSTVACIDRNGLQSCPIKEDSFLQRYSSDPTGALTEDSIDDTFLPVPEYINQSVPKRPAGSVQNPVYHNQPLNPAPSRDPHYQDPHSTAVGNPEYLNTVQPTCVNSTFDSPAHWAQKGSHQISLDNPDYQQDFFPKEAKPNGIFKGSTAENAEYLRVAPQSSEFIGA
Protocol: as §1

| Structure (SMILES) | EGFR exon 19 deletion and exon 20 T790M mutation IC50 [1] | IC50 [2] | IC50 [3] | IC50 [4] |
| --- | --- | --- | --- | --- |
| C=CC(=O)Nc1cc(Nc2ncc(C#N)c(-c3cn4c5c(cccc35)CCC4)n2)c(OC)cc1N1CC[C@@H](N(C)C)C1 [Example 15, (R)-N-(5-((5-cyano-4-(5,6-dihydro-4H-pyrrolo[3,2,1-ij]quinolin-1-yl)pyrimidin-2-yl)amino)-2-(3-(dimethylamino)pyrrolidin-1-yl)-4-methoxyphenyl)acrylamide] | A (IC50 value for the indicated mutant below about 100 nM) | 100 to 500 nM | < 100 nM | < 100 nM |
| C=CC(=O)Nc1cc(Nc2ncc(C#N)c(-c3cn4c5c(cccc35)CCC4)n2)c(OC)cc1N1CC[C@H](N(C)C)C1 [Example 16, (S)-N-(5-((5-cyano-4-(5,6-dihydro-4H-pyrrolo[3,2,1-ij]quinolin-1-yl)pyrimidin-2-yl)amino)-2-(3-(dimethylamino)pyrrolidin-1-yl)-4-methoxyphenyl)acrylamide] | A (IC50 value for the indicated mutant below about 100 nM) | 100 to 500 nM | < 100 nM | < 100 nM |
| C=CC(=O)Nc1cc(Nc2ncc(F)c(-c3cn4c5c(cccc35)CCC4)n2)c(OC)cc1N(C)CCN(C)C [Example 17, N-(5-((4-(5,6-dihydro-4H-pyrrolo[3,2,1-ij]quinolin-1-yl)-5-fluoropyrimidin-2-yl)amino)-2-((2-(dimethylamino)ethyl)(methyl)amino)-4-methoxyphenyl)acrylamide] | A (IC50 value for the indicated mutant below about 100 nM) | 100 to 500 nM | < 100 nM | 100 to 500 nM |
| C=CC(=O)Nc1cc(Nc2ncc(Cl)c(-c3cn4c5c(cccc35)CCC4)n2)c(CC)cc1N(C)CCN(C)C [Example 18, N-(5-((5-chloro-4-(5,6-dihydro-4H-pyrrolo[3,2,1-ij]quinolin-1-yl)pyrimidin-2-yl)amino)-2-((2-(dimethylamino)ethyl)(methyl)amino)-4-ethylphenyl)acrylamide] | A (IC50 value for the indicated mutant below about 100 nM) | 100 to 500 nM | < 100 nM | < 100 nM |
| C=CC(=O)Nc1cc(Nc2ncc(OC)c(-c3cn4c5c(cccc35)CCC4)n2)c(OC)cc1N(C)CCN(C)C [Example 19, N-(5-((4-(5,6-dihydro-4H-pyrrolo[3,2,1-ij]quinolin-1-yl)-5-methoxypyrimidin-2-yl)amino)-2-((2-(dimethylamino)ethyl)(methyl)amino)-4-methoxyphenyl)acrylamide] | A (IC50 value for the indicated mutant below about 100 nM) | 100 to 500 nM | < 100 nM | < 100 nM |
| C#Cc1cnc(Nc2cc(NC(=O)C=C)c(N(C)CCN(C)C)cc2OC)nc1-c1cn2c3c(cccc13)CCC2 [Example 31, N-(5-((4-(5,6-dihydro-4H-pyrrolo[3,2,1-ij]quinolin-1-yl)-5-ethynylpyrimidin-2-yl)amino)-2-((2-(dimethylamino)ethyl)(methyl)amino)-4-methoxyphenyl)acrylamide] | A (IC50 value for the indicated mutant below about 100 nM) | < 100 nM | < 100 nM | < 100 nM |
| C=CC(=O)Nc1cc(Nc2ncc(CCC(C)O)c(-c3cn4c5c(cccc35)CCC4)n2)c(OC)cc1N(C)CCN(C)C (centres unmarked) [Example 32, N-(5-((4-(5,6-dihydro-4H-pyrrolo[3,2,1-ij]quinolin-1-yl)-5-(3-hydroxybutyl)pyrimidin-2-yl)amino)-2-((2-(dimethylamino)ethyl)(methyl)amino)-4-methoxyphenyl)acrylamide] | A (IC50 value for the indicated mutant below about 100 nM) | 100 to 500 nM | < 100 nM | < 100 nM |
| C=CC(=O)Nc1cc(Nc2ncc(CCCOC)c(-c3cn4c5c(cccc35)CCC4)n2)c(OC)cc1N(C)CCN(C)C [Example 33, N-(5-((4-(5,6-dihydro-4H-pyrrolo[3,2,1-ij]quinolin-1-yl)-5-(3-methoxypropyl)pyrimidin-2-yl)amino)-2-((2-(dimethylamino)ethyl)(methyl)amino)-4-methoxyphenyl)acrylamide] | A (IC50 value for the indicated mutant below about 100 nM) | < 100 nM | < 100 nM | < 100 nM |
| C=CC(=O)Nc1cc(Nc2ncc(CCC3CCCC3)c(-c3cn4c5c(cccc35)CCC4)n2)c(OC)cc1N(C)CCN(C)C [Example 35] | C (IC50 value for the indicated mutant between greater than about 500 to about 1 μM) | 500 to 1000 nM | 100 to 500 nM | 500 to 1000 nM |
| C=CC(=O)Nc1cc(Nc2ncc(CCC(=O)OC)c(-c3cn4c5c(cccc35)CCC4)n2)c(OC)cc1N(C)CCN(C)C [Example 39, methyl 3-(2-((5-acrylamido-4-((2-(dimethylamino)ethyl)(methyl)amino)-2-methoxyphenyl)amino)-4-(5,6-dihydro-4H-pyrrolo[3,2,1-ij]quinolin-1-yl)pyrimidin-5-yl)propanoate] | A (IC50 value for the indicated mutant below about 100 nM) | 100 to 500 nM | < 100 nM | 100 to 500 nM |
| C=CC(=O)Nc1cc(Nc2ncc(CCC#N)c(-c3cn4c5c(cccc35)CCC4)n2)c(OC)cc1N(C)CCN(C)C [Example 41, N-(5-((5-(2-cyanoethyl)-4-(5,6-dihydro-4H-pyrrolo[3,2,1-ij]quinolin-1-ul)pyrimidin-2-yl)amino)-2-((2-(dimethylamino)ethyl)(methyl)amino)-4-methoxyphenyl)acrylamide] | A (IC50 value for the indicated mutant below about 100 nM) | < 100 nM | < 100 nM | < 100 nM |
